The assay concerns mice. Kind of assay: Tail-flick test, blockade of nicotine-induced antinociception. The format is in vivo. The protocol: Animals. Male ICR mice (20-25 g) obtained from Harlan Laboratories (Indianapolis, Ind.) were used throughout the study. Animals were housed in groups of six and had free access to food and water. Adult, male Long-Evans rats (350-460 g), obtained from Harlan (Dublin, Va.), were individually housed in a temperature-controlled (20-22° C.) environment with a 12-hour light-dark cycle (lights on at 7 a.m.). Rats were maintained within the indicated weight range by restricted post-session feeding and had ad libitum water in their home cages. Rats were drug-naive at the beginning of the study. Animals were housed in an AALAC approved facility and the study was approved by the Institutional Animal Care and Use Committee of Virginia Commonwealth University.
1. Tail-flick test. Antinociception was assessed by the tail-flick method of D'Amour and Smith (D'Amour and Smith J. P. E. T., 1941, 72:74-79) as modified by Dewey et al. (Dewey et al. J Pharmacol Exp Ther, 1970, 175:435-442). Briefly, mice were lightly restrained while a radiant heat source was shone onto the upper portion of the tail. Latency to remove the tail from the heat source was recorded for each animal. A control response (2-4 seconds) was determined for each mouse before treatment, and a test latency was determined after drug administration. In order to minimize tissue damage, a maximum latency of 10 seconds was imposed. Antinociceptive response was calculated as percent maximum possible effect (% MPE), where % MPE=[(test-control)/(10-control)]×100.
2. Hot-plate Test. […] Two control latencies at least 10 minutes apart were determined for each mouse. […] Antinociceptive response was calculated as percent maximum possible effect (% MPE), where % MPE=[(test-control)/(40-control)×100]. The reaction time was scored when the animal jumped or licked its paws. […]
The doses of nicotine used in the different tests represent approximately an ED84 (Effective dose 84%) which were determined from previous works (Damaj et al. Psychopharmacology (Berl), 1995, 117:67-73). […]

The values that follow come from patent publication US7531555B2, “Compositions and methods for selective inhibition of nicotine acetylcholine receptors” (University of Florida Research Foundation, Inc., priority 2003, dated 2009).

Consider `CCCCCCC(=O)OC1CC(C)(C)NC(C)(C)C1` [TMPH, 2,2,6,6-tetramethylpiperidin-4-yl heptanoate], for which the “duration of TMPH effect, tail-flick” value (TMPH 5 mg/kg s.c., still significantly different from control) is listed as “at least 4 hours”. The “time at which nicotine's effect started to recover, tail-flick” value (pretreatment with TMPH 5 mg/kg) was not above 60 min. Besides, the “antinociception by TMPH itself, tail-flick” value (s.c. injection, at the indicated doses and times) is listed as “did not cause antinociception”.
